Data set [1] concerns Tritikale Ampfindiploid 206. The data set can be described thus: Field test of gametocidal activity, triticale Amphidiploid 206. The class given is in vivo. As to conditions: period V, 1% aqueous emulsion, 6 kg/ha in 600 l water; for Prozentsatz des Ansetzens von Samen bei freier Bestäubung: control = 100. An excerpt: (§1) Die gametozide Aktivität der erfindungsgemäßen Sterilisationsmittel war in Feldversuchen in verschiedenen bodenklimatischen Zonen mit Teilstücken von 10 m^2 Größe in dreibis viermaliger Wiederholung festgestellt. Jedes Sterilisationsmittel wurde mindenstens 5 Jahre lang geprüft.
(§2) Die Entwicklung der Perioden der Organogenese wird zytologisch überwacht. Die Behandlung von Pflanzen mit dem Sterilisationsmittel erfolgt am Anfang der fünften Periode der Organogenese nach Kupermann.
(§3) Mit dem Ährenschieben verwirklicht man die Isolierung von Hauptähren und anderen Stockwerken in Pergametbeuteln. Bei Weizen und Tritikale werden Einzelisolatoren benutzt. Bei Roggen schließt man je 1 Ähre von […] verschiedenen nebeneinander befindlichen Pflanzen unter einen gemeinsamen Isolator ein. Bei Hirse wird jede Rispe getrennt isoliert. Der Sterilitätsprozentsatz (X) für Weizen, Roggen, Tritikale und Hirse wird nach der Formel [formula] ermittelt.
(§4) Die Kornzahl in nicht isolierten Ähren von Kontrollpflanzen wird bedingt für 100 % Ansetzen bei freier Bestäubung angenommen.
(§5) Um zuverlässige Angaben zu erhalten, verwendet man 20 bis 25 Isolatoren je Wiederholung für Weizen und Tritikale, 10 bis 15 Isolatoren jeder Wiederholung für Roggen und Hirse.
Pflanzen von Tritikale Ampfindiploid 206 werden in der V.Periode der Organogenese (nach Kupermann) mit einer 1%igen wäßrigen Emulsion von 1,1,3-Tribrompropan bzw. 1,2-Dibromheptan behandelt. Die Emulsion enthält 0,5 Masse% C12-C14--Kalziumalkylbenzolsulfonat und 0,01 Masse% Dimethylformamid. Der Verbrauch an Präparat beträgt 6 kg/ha bei 600 1 Wasserdurchsatz. Die Prüfergebnisse sind in der Tabelle 6 angegeben.
Die gleichen Ergebnisse sind bei der Behandlung von Tritikale Amphidiploid 206 in der VI. Periode der Organogenese erhalten.

Data set [2] relates to Sonnenblume Sorte Peredovik. The data set can be described thus: Field test of pollen sterilisation, sunflower Peredovik. The class given is in vivo.
Description: as §1, §2
Zur Kontrolle der chemischen Sterilisation des Sonnenblumenpollens werden für jede Verbindung 45 behandelte Pflanzen je Wiederholung benutzt, wobei 15 Pflanzen zwecks Selbstbestäubung des Blütenkörbchens isoliert werden, 15 Pflanzen mit einem Pollengemisch, gesammelt von 20 bis 25 behandelten isolierten Körbchen, bestäubt werden, und 15 Pflanzen für freie Bestäubung gelassen werden, damit das Ansetzen von Achänen mit dem Pollen der Vaterform kontrolliert worden kann.
Man beurteilt die Pollensterilität von Pflanzen der Sonnenblume nach der Pollenfertilität und -keimfähigkeit, nach den morphologischen Besonderheiten von Spermien und nach der Fähigkeit von Achänen […] bei der Bestäubung der behandelten isolierten Pflanzen mit dem Pollen der unbehandelten väterlichen Form. Die Lebensfähigkeit der Eizelle wird nach der Samenbildung bei behandelten Pflanzen bei freier Bestäubung der väterlichen Form bestimmt.
Pflanzen der Sonnenblume Sorte Peredovik werden in der V. Periode der Organogenese (nach Kupermann) mit einer 0,2%igen wäßrigen Emulsion von 1,1,3-Tribrompropan, 1,2--Dibrompropan behandelt. Die Emulsion enthält 0,5 Masse% C12-C14-Kalziumalkylbenzolsulfonat und 0,01 Masse% Dimethylsulfoxid als Adjuvans. Der Verbrauch an Präparat beträgt 1,2 kg/ha bei 600 1 Wasserdurchsatz. Die Prüfergebnisse sind in der Tabelle 16 angegeben. Die gleichen Ergebnisse sind bei der Behandlung der Sonnenblume Sorte Peredovik in der VI. Periode der Organogenese erhalten.
Man verfährt analog den Beispielen 85 und 86. Als Sterilisationsmittel dient eine 0,1%ige wäßrige Emulsion von 1,2-Dibrom-3-chlorpropan. Der Verbrauch an Präparat beträgt […]. Die Prüfergebnisse sind in der Tabelle 16 angegeben.

Data set [3] is described as follows: Toxicity in animal test (LD50). More on the design: species or system Mäuse. The conditions noted are these: in vivo, mice stated only for 1,1,3-Tribrompropan, species not given for the others. The source says:
Alle erfindungsgemäßen Polybromalkane, die als Sterilisationsmittel zur Verwendung kommen, waren auf die Toxizität im Tierversuch geprüft. Die Prüfergebnisse haben ergeben, daß die angegebenen Verbindungen von schwacher oder mittlerer Toxizität sind.

For data set [4], the system named is tetraploidem Roggen Ukrainskaya tetra. Nature of the data set: Field test of gametocidal activity, tetraploid rye Ukrainskaya tetra. The class given is in vivo. The conditions noted are these: period V, 1% aqueous emulsion, 6 kg/ha in 600 l water; for Prozentsatz des Ansetzens von Samen bei freier Bestäubung: control = 100.
Description: as §1, §2, §3, §4, §5
Pflanzen von tetraploidem Roggen Ukrainskaya tetra werden in der V.Periode der Organogenese (nach Kupermann) mit einer 1%igen wäßrigen Emulsion von 1,2,3-Tribrompropan, 1,2-Dibrompropan bzw. 1,2-Dibrom-3-chlorpropan behandelt. Die Emulsion enthält 0,5 Masse% C12-C14-Kalzium- alkylbenzolsulfonat und 0,01 Masse% Tetrahydrofuran. Der Verbrauch an Präparat beträgt 6 kg/ha bei 600 1 Wasserdurchsatz. Als Kontrolle dienen Pflanzen, behandelt mit dem Verdünner ohne Sterilisationsmittel. Die Prüfergebnisse sind in der Tabelle 8 angegeben. Die gleichen Ergebnisse sind bei der Behandlung von tetraploidem Roggen Ukrainskaya in der VI. Periode der Organogenese erhalten.

The subject of data set [5] is tetraploidem Roggen Gibrid 67. Nature of the data set: Field test of gametocidal activity, tetraploid rye Gibrid 67. The class given is in vivo. The conditions noted are these: period V, 1% aqueous emulsion, 10 kg/ha; for Prozentsatz des Ansetzens von Samen bei freier Bestäubung: control = 100.
Description: as §1, §2, §3, §4, §5
Pflanzen von tetraploidem Roggen Gibrid 67 werden in der V.Periode der Organogenese mit einer l%igen wäßrigen Emulsion von 1,2,3-Tribrompropan, 1,2-Dibrompropan bzw. 1,2-Dibrom-3-chlorpropan behandelt. Die Emulsion enthält 0,5 Masse% C12-C14-Kalziumalkylbenzolsulfonat und 0,01 Masse% Dimethylsulfoxid. Der Verbrauch an Präparat beträgt 10 kg/ha. Die Prüfergebnisse sind in der Tabelle 10 angegeben. Die gleichen Ergebnisse sind bei der Behandlung von tetraploidem Roggen Gibrid 67 in der VI. Periode der Organogenese erhalten.

The conditions of data set [6]: workplace air limit; cited from earlier work.
For data set [7], the system named is Sommerweizens Sorte Botanicheskaya 4. The data set can be described thus: Field test of gametocidal activity, spring wheat Botanicheskaya 4. The class given is in vivo, Weizen. As to conditions: period V, 1% aqueous emulsion, 6 kg/ha in 600 l water; for Prozentsatz des Ansetzens von Samen bei freier Bestäubung: control = 100.
Description: as §1, §2, §3, §4, §5
Pflanzen des Sommerweizens Sorte Botanicheskaya 4 werden in der V. Periode der Organogenese (nach Kupermann) mit einer 1%igen wäßrigen Emulsion von 1,3-Dibrompropan, 1,1,1,3-Tetrabromheptan, 1,1,2-Tribromheptan bzw. 1,2--Dibromheptan behandelt. Die Emulsion enthält 0,5 Masse% C12-C14-Kalziumalkylbenzolsulfonat und 0,01 Masse% Dimethylsulfoxid als Adjuvans. Der Verbrauch an Präparat beträgt 6 kg/ha bei 600 1 Wasserdurchsatz. Als Kontrolle dienen Pflanzen, behandelt mit dem Verdünner ohne Sterilisationsmittel.
Die Prüfergebnisse sind in der Tabelle 4 angegeben. Die gleichen Ergebnisse sind bei der Behandlung des Sommerweizens Sorte Botanicheskaya 4 in der VI. Periode der Organogenese erhalten.

The mark [8] stands for this setting: period V, 0.2% aqueous emulsion, 1.2 kg/ha in 600 l water.
Where [9] appears, read: 0.1% aqueous emulsion, 1.0 kg/ha.

Data on six compounds can be found in EP0358766A1, “METHOD OF STERILIZING PLANT ANTHERS” (VSESOJUZNY NAUCHNO-ISSLEDOVATELSKY INST. SELSKOKHOZYAISTV. …, priority 1988, dated 1989).

The LD50 is the dose expected to kill half of the subjects tested.

With `BrCCC(Br)Br` [Beispiel 1, 1,1,3-Tribrompropan], in data set [1], the “Kornzahl der Ähre bei freier Bestäubung” value is recorded as 30,1, the “Kornzahl der Ähre im Isolator” value is reported as 0,0, the “Prozentsatz der Sterilität” value is on record as 100,0% and the “Prozentsatz des Ansetzens von Samen bei freier Bestäubung” value is recorded as 82,2%. Besides, in data set [2] (setting [8]), the “Ansetzen bei freier Bestäubung in %” value is on record as 78,7%, the “Ansetzen im Isolator bei Pollengemischbestäubung in %” value is reported as 0,0%, the Pollenleistung in % is on record as 30,0% and the Pollensterilität in % is reported as 100,0%. For the same compound, the LD50 in data set [3] was 540 mg/kg.
As for `CC(Br)CBr` (stereo not shown) [Beispiel 5, 1,2-Dibrompropan], in data set [4], the “Kornzahl der Ähre bei freier Bestäubung” value is 47,5, the “Kornzahl der Ähre unter Isolator” value is reported as 0,3, the “Prozentsatz der Sterilität” value is given as 99,4% and the “Prozentsatz des Ansetzens von Samen bei freier Bestäubung” value is given as 92,1%. Also, in data set [5], the “Kornzahl der Ähre bei freier Bestäubung” value is given as 42,7, the “Kornzahl der Ähre im Isolator” value was 0,2, the “Prozentsatz der Sterilität” value is listed as 99,5% and the “Prozentsatz des Ansetzens von Samen bei freier Bestäubung” value is 86,3%. Also, in data set [2] (setting [8]), the “Ansetzen bei freier Bestäubung in %” value is recorded as 84,5%, the “Ansetzen im Isolator bei Pollengemischbestäubung in %” value is 0,0%, the Pollenleistung in % is 13,1% and the Pollensterilität in % is 100,0%. Further, the “maximale Arbeitsplatzkonzentration (MAK-Wert)” value in data set [6] is 5 mg/m^3.
As to `CCCCC(Br)CC(Br)(Br)Br` (stereo not shown) [Beispiel 9, 1,1,1,3-Tetrabromheptan], in data set [7], the “Kornzahl der Ähre bei freier Bestäubung” value was 28,1, the “Kornzahl der Ähre im Isolator” value is reported as 0,0, the “Prozentsatz der Sterilität” value was 100,0% and the “Prozentsatz des Ansetzens von Samen bei freier Bestäubung” value is 90,9%.
Regarding `BrCC(Br)CBr` [Beispiel 4, 1,2,3-Tribrompropan], in data set [4], the “Kornzahl der Ähre bei freier Bestäubung” value is reported as 48,6, the “Kornzahl der Ähre unter Isolator” value is given as 0,0, the “Prozentsatz der Sterilität” value is recorded as 100,0% and the “Prozentsatz des Ansetzens von Samen bei freier Bestäubung” value was 94,2%. Besides, in data set [5], the “Kornzahl der Ähre bei freier Bestäubung” value is listed as 40,6, the “Kornzahl der Ähre im Isolator” value is listed as 0,6, the “Prozentsatz der Sterilität” value is listed as 98,6% and the “Prozentsatz des Ansetzens von Samen bei freier Bestäubung” value was 82,0%.
Turning to `ClCC(Br)CBr` (stereo not shown) [Beispiel 7, 1,2-Dibrom-3-chlorpropan], in data set [4], the “Kornzahl der Ähre bei freier Bestäubung” value is recorded as 45,8, the “Kornzahl der Ähre unter Isolator” value was 0,6, the “Prozentsatz der Sterilität” value was 98,8% and the “Prozentsatz des Ansetzens von Samen bei freier Bestäubung” value is listed as 88,7%. Also, in data set [5], the “Kornzahl der Ähre bei freier Bestäubung” value is on record as 45,2, the “Kornzahl der Ähre im Isolator” value is listed as 0,0, the “Prozentsatz der Sterilität” value was 100,0% and the “Prozentsatz des Ansetzens von Samen bei freier Bestäubung” value is 91,3%. Further, in data set [2] (setting [9]), the “Ansetzen bei freier Bestäubung in %” value was 81,4%, the “Ansetzen im Isolator bei Pollengemischbestäubung in %” value is listed as 0,0%, the Pollenleistung in % is 0,0% and the Pollensterilität in % is recorded as 100,0%. In data set [3], this compound gave an LD50 of around 170 mg/kg.
On to `CCCCCC(Br)CBr` (stereo not shown) [Beispiel 11, 1,2-Dibromheptan], for which, in data set [7], the “Kornzahl der Ähre bei freier Bestäubung” value is recorded as 23,6, the “Kornzahl der Ähre im Isolator” value is given as 0,0, the “Prozentsatz der Sterilität” value is 100,0% and the “Prozentsatz des Ansetzens von Samen bei freier Bestäubung” value was 76,4%. Further, in data set [1], the “Kornzahl der Ähre bei freier Bestäubung” value is listed as 29,2, the “Kornzahl der Ähre im Isolator” value is 0,0, the “Prozentsatz der Sterilität” value is recorded as 100,0% and the “Prozentsatz des Ansetzens von Samen bei freier Bestäubung” value is 79,8%.
